Reference: PubChem BioAssay AID256 (DTP/NCI, 2004)
Inconclusive results and toxic doses are left out.

Tested on: CD2F1 mice, L1210 leukemia ip, survival T/C
Test: NCI In Vivo Anticancer Drug Screen. Data for tumor model L1210 Leukemia (intraperitoneal) in CD2F1 (CDF1) mice
Settings: endpoint: mean survival time, higher = longer survival
How it was run: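 Transplantable tumor in mice; compound-treated vs vehicle-treated groups. Read-out = treated/control ratio of the measured endpoint.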

[1] = dose: 100.0 mg/kg/injection, schedule: Q01DX009 (ip), vehicle: saline with Tween-80
[2] = dose: 200.0 mg/kg/injection, schedule: Q01DX009 (ip), vehicle: saline with Tween-80
[3] = dose: 25.0 mg/kg/injection, schedule: Q04DX003 (ip), vehicle: saline
[4] = dose: 50.0 mg/kg/injection, schedule: Q04DX003 (ip), vehicle: saline
[5] = dose: 100.0 mg/kg/injection, schedule: Q04DX003 (ip), vehicle: saline

## CCOC(=O)C(S(C)(=O)=O)S(C)(=O)=O
dose: 75.0 mg/kg/injection, schedule: Q01DX001 (ip), vehicle: saline with Tween-80
  T/C: 97 % of control
dose: 150.0 mg/kg/injection, schedule: Q01DX001 (ip), vehicle: saline with Tween-80
  T/C: 108 % of control
dose: 300.0 mg/kg/injection, schedule: Q01DX001 (ip), vehicle: saline with Tween-80
  T/C: 98 % of control

## CN1CCN(Cc2cn(C3CC(O)C(CO)O3)c(=O)[nH]c2=O)CC1 (centres undefined)
dose: 12.5 mg/kg/injection, schedule: Q01DX005 (ip), vehicle: water
  T/C: 96 % of control
dose: 25.0 mg/kg/injection, schedule: Q01DX005 (ip), vehicle: water
  T/C: 93 % of control
dose: 50.0 mg/kg/injection, schedule: Q01DX005 (ip), vehicle: water
  T/C: 91 % of control
dose: 100.0 mg/kg/injection, schedule: Q01DX005 (ip), vehicle: water
  T/C: 95 % of control
dose: 200.0 mg/kg/injection, schedule: Q01DX005 (ip), vehicle: water
  T/C: 90 % of control

## Cc1cc(=O)[nH]c(-c2ccccc2)c1C(=O)O
dose: 100.0 mg/kg/injection, schedule: Q04DX002 (ip), vehicle: saline with Tween-80
  T/C: 95 % of control
dose: 200.0 mg/kg/injection, schedule: Q04DX002 (ip), vehicle: saline with Tween-80
  T/C: 95 % of control
dose: 400.0 mg/kg/injection, schedule: Q04DX002 (ip), vehicle: saline with Tween-80
  T/C: 95 % of control

## CC1(C(=O)O)CCOC1=O (centres undefined)
dose: 100.0 mg/kg/injection, schedule: Q04DX002 (ip), vehicle: saline
  T/C: 102 % of control
dose: 200.0 mg/kg/injection, schedule: Q04DX002 (ip), vehicle: saline
  T/C: 107 % of control

## C/C(=N/O)c1ccc2c(c1)C(C)c1ccccc1-2 (centres undefined)
dose: 100.0 mg/kg/injection, schedule: Q01DX001 (ip), vehicle: saline
  T/C: 112 % of control
dose: 200.0 mg/kg/injection, schedule: Q01DX001 (ip), vehicle: saline
  T/C: 110 % of control
dose: 400.0 mg/kg/injection, schedule: Q01DX001 (ip), vehicle: saline
  T/C: 104 % of control

## C/C(=N\NC(N)=O)C(F)(F)F
dose: 50.0 mg/kg/injection, schedule: Q01DX009 (ip), vehicle: saline with Tween-80
  T/C: 101 % of control
[1]
  T/C: 102 % of control
dose: 100.0 mg/kg/injection, schedule: Q04DX003 (ip), vehicle: saline with Tween-80
  T/C: 97 % of control
[2]
  T/C: 102 % of control
dose: 200.0 mg/kg/injection, schedule: Q04DX003 (ip), vehicle: saline with Tween-80
  T/C: 108 % of control

## C=CC(N)=O
dose: 25.0 mg/kg/injection, schedule: Q01DX009 (ip), vehicle: saline
  T/C: 102 % of control
[3]
  T/C: 92 % of control
dose: 50.0 mg/kg/injection, schedule: Q01DX009 (ip), vehicle: saline
  T/C: 92 % of control
[4]
  T/C: 105 % of control
[5]
  T/C: 97 % of control

## CCCCc1ccc2nc(NC(=O)OC)[nH]c2c1
dose: 6.25 mg/kg/injection, schedule: Q01DX009 (ip), vehicle: saline with Tween-80
  T/C: 107 % of control
dose: 12.5 mg/kg/injection, schedule: Q01DX009 (ip), vehicle: saline with Tween-80
  T/C: 113 % of control
[1]
  T/C: 166 % of control
[2]
  T/C: 86 % of control

## CC1CCCC2C(=O)OC(=O)C12 (centres undefined)
dose: 100.0 mg/kg/injection, schedule: Q04DX003 (ip), vehicle: Klucel (hydroxypropylcellulose) (HPC)
  T/C: 92 % of control
dose: 200.0 mg/kg/injection, schedule: Q04DX003 (ip), vehicle: Klucel (hydroxypropylcellulose) (HPC)
  T/C: 98 % of control

## COc1ccc2c(O)c3[n+](cc2c1OC)CCc1cc2c(cc1-3)OCO2
dose: 75.0 mg/kg/injection, schedule: Q01DX001 (ip), vehicle: other
  T/C: 100 % of control
dose: 150.0 mg/kg/injection, schedule: Q01DX001 (ip), vehicle: other
  T/C: 87 % of control
dose: 300.0 mg/kg/injection, schedule: Q01DX001 (ip), vehicle: other
  T/C: 100 % of control

## Cc1nnc(C(N)=O)c(=O)[nH]1
dose: 100.0 mg/kg/injection, schedule: Q01DX001 (ip), vehicle: Klucel (hydroxypropylcellulose) (HPC)
  T/C: 102 % of control
dose: 200.0 mg/kg/injection, schedule: Q01DX001 (ip), vehicle: Klucel (hydroxypropylcellulose) (HPC)
  T/C: 98 % of control
dose: 400.0 mg/kg/injection, schedule: Q01DX001 (ip), vehicle: Klucel (hydroxypropylcellulose) (HPC)
  T/C: 100 % of control

## Cc1nc(C(N)=O)c(=O)[nH]c1C
[3]
  T/C: 102 % of control
[4]
  T/C: 107 % of control
dose: 100.0 mg/kg/injection, schedule: Q01DX009 (ip), vehicle: saline
  T/C: 111 % of control
[5]
  T/C: 101 % of control
dose: 200.0 mg/kg/injection, schedule: Q01DX009 (ip), vehicle: saline
  T/C: 100 % of control
dose: 400.0 mg/kg/injection, schedule: Q01DX009 (ip), vehicle: saline
  T/C: 97 % of control
